Patent US11542240B2, “STK19 inhibitors for treatment of cancer” (TRUSTEES OF BOSTON UNIVERSITY, priority 2018, dated 2023)
Several values for one entry are separate records, joined by “and”; a condition that tells them apart may be missing. Equal entries are not always repeated.

Columns and labels:
Test in all cases: biochemical
Assay type in all cases: binding
[1] = biological target: panel of 468 diverse kinases (Homo sapiens, UniProt P36897); conditions: TGFBR1; 1000 nM; read-out: Percent Control
[2] = biological target: panel of 468 diverse kinases (Homo sapiens, UniProt O94921); conditions: PFTK1; 1000 nM; read-out: Percent Control
[3] = biological target: panel of 468 diverse kinases (Homo sapiens, UniProt P49137); conditions: MAPKAPK2; 1000 nM; read-out: Percent Control
[4] = biological target: panel of 468 diverse kinases (Homo sapiens, UniProt P29317); conditions: EPHA2; 1000 nM; read-out: Percent Control
[5] = biological target: panel of 468 diverse kinases (Homo sapiens, UniProt P21802); conditions: FGFR2; 1000 nM; read-out: Percent Control
[6] = biological target: panel of 468 diverse kinases (Homo sapiens, UniProt Q9UQ88); conditions: CDC2L2; 1000 nM; read-out: Percent Control
[7] = biological target: panel of 468 diverse kinases (Homo sapiens, UniProt P17612); conditions: PKAC-alpha; 1000 nM; read-out: Percent Control
[8] = biological target: panel of 468 diverse kinases (Homo sapiens, UniProt Q8N568); conditions: DCAMKL2; 1000 nM; read-out: Percent Control
[9] = biological target: panel of 468 diverse kinases (Homo sapiens, UniProt Q13043); conditions: MST1; 1000 nM; read-out: Percent Control
[10] = biological target: panel of 468 diverse kinases (Homo sapiens, UniProt Q9UPZ9); conditions: ICK; 1000 nM; read-out: Percent Control
[11] = biological target: panel of 468 diverse kinases (Homo sapiens, UniProt Q15208); conditions: NDR1; 1000 nM; read-out: Percent Control
[12] = biological target: panel of 468 diverse kinases (Homo sapiens, UniProt Q15746); conditions: MYLK; 1000 nM; read-out: Percent Control
[13] = biological target: panel of 468 diverse kinases (Homo sapiens, UniProt Q59H18); conditions: TNNI3K; 1000 nM; read-out: Percent Control
[14] = biological target: panel of 468 diverse kinases (Homo sapiens, UniProt O43293); conditions: DAPK3; 1000 nM; read-out: Percent Control
[15] = biological target: panel of 468 diverse kinases (Homo sapiens, UniProt O00750); conditions: PIK3C2B; 1000 nM; read-out: Percent Control
[16] = biological target: panel of 468 diverse kinases (Homo sapiens, UniProt P42336, H1047L); conditions: PIK3CA(H1047L); 1000 nM; read-out: Percent Control
[17] = biological target: panel of 468 diverse kinases (Homo sapiens, UniProt Q9NYL2); conditions: ZAK; 1000 nM; read-out: Percent Control
[18] = biological target: panel of 468 diverse kinases (Homo sapiens, UniProt P53350); conditions: PLK1; 1000 nM; read-out: Percent Control
[19] = biological target: panel of 468 diverse kinases (Homo sapiens, UniProt Q8NE63); conditions: HIPK4; 1000 nM; read-out: Percent Control
[20] = biological target: panel of 468 diverse kinases (Homo sapiens, UniProt Q16832); conditions: DDR2; 1000 nM; read-out: Percent Control
[21] = biological target: panel of 468 diverse kinases (Homo sapiens, UniProt Q9NYY3); conditions: PLK2; 1000 nM; read-out: Percent Control
[22] = tested on: panel of 468 diverse kinases
[23] = biological target: panel of 468 diverse kinases (Homo sapiens, UniProt P35626); conditions: GRK3; 1000 nM; read-out: Percent Control
[24] = biological target: panel of 468 diverse kinases (Homo sapiens, UniProt P42681); conditions: TXK; 1000 nM; read-out: Percent Control
[25] = biological target: panel of 468 diverse kinases (Homo sapiens, UniProt P36896); conditions: ACVR1B; 1000 nM; read-out: Percent Control
[26] = biological target: panel of 468 diverse kinases (Homo sapiens, UniProt Q15835); conditions: GRK1; 1000 nM; read-out: Percent Control
[27] = biological target: panel of 468 diverse kinases (Homo sapiens, UniProt P48729); conditions: CSNKIV1; 1000 nM; read-out: Percent Control
[28] = biological target: panel of 468 diverse kinases (Homo sapiens, UniProt Q92772); conditions: CDKL2; 1000 nM; read-out: Percent Control
[29] = biological target: panel of 468 diverse kinases (Homo sapiens, UniProt P42336, E545K); conditions: PIK3CA(E545K); 1000 nM; read-out: Percent Control
[30] = biological target: panel of 468 diverse kinases (Homo sapiens, UniProt Q9NRH2); conditions: SNRK; 1000 nM; read-out: Percent Control
[31] = biological target: panel of 468 diverse kinases (Homo sapiens, UniProt Q8WXR4); conditions: MYO3B; 1000 nM; read-out: Percent Control

panel of 468 diverse kinases (Homo sapiens, UniProt P29317), sequence (P29317 24-976 limits assumed): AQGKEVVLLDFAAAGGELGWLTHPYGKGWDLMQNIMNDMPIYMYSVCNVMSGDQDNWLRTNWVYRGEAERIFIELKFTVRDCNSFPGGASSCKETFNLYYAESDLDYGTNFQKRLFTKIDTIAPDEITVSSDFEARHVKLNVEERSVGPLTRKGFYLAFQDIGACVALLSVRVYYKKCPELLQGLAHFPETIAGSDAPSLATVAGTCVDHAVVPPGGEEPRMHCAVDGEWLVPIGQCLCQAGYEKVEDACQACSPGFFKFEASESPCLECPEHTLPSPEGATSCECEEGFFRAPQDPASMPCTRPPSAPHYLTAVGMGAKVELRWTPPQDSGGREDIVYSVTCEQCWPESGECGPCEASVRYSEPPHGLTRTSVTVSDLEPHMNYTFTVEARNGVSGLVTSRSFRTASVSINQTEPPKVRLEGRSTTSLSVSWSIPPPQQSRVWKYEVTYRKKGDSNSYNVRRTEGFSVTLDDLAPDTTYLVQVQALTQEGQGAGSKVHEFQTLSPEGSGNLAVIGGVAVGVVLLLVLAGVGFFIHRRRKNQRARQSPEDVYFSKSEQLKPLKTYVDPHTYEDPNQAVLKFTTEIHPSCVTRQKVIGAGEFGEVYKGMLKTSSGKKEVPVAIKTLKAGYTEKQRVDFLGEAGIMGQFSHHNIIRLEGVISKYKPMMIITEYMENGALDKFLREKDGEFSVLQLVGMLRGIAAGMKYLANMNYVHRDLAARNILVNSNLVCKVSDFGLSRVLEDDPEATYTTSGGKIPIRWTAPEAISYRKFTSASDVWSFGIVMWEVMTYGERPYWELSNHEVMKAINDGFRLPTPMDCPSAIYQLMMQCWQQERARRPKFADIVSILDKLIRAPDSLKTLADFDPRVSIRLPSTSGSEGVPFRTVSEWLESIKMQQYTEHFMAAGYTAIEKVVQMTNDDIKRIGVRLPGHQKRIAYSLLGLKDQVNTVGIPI
panel of 468 diverse kinases (Homo sapiens, UniProt Q16832), sequence (Q16832 22-855 limits assumed): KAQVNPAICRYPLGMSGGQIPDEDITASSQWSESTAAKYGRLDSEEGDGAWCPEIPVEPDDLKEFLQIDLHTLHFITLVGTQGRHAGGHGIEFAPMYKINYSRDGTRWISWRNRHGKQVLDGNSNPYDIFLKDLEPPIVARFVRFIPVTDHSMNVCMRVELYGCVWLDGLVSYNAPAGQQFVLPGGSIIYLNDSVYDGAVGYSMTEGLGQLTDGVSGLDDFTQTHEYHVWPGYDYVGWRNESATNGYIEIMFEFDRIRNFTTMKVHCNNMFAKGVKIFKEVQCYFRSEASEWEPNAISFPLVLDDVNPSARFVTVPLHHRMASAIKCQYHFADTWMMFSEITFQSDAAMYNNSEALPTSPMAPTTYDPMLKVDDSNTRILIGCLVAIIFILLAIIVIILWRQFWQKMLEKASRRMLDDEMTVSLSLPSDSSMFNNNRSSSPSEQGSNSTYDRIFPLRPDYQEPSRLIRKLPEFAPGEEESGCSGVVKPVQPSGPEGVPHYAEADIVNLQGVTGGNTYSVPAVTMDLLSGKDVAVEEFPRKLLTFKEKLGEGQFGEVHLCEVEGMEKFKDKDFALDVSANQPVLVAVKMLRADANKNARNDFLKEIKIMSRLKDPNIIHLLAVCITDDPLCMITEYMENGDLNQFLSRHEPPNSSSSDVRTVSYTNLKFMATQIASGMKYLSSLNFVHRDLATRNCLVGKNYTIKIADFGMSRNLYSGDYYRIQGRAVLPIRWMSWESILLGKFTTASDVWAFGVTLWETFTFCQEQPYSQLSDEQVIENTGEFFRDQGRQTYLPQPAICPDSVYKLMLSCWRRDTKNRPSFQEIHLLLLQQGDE
panel of 468 diverse kinases (Homo sapiens, UniProt P53350), sequence (P53350 2-603 limits assumed): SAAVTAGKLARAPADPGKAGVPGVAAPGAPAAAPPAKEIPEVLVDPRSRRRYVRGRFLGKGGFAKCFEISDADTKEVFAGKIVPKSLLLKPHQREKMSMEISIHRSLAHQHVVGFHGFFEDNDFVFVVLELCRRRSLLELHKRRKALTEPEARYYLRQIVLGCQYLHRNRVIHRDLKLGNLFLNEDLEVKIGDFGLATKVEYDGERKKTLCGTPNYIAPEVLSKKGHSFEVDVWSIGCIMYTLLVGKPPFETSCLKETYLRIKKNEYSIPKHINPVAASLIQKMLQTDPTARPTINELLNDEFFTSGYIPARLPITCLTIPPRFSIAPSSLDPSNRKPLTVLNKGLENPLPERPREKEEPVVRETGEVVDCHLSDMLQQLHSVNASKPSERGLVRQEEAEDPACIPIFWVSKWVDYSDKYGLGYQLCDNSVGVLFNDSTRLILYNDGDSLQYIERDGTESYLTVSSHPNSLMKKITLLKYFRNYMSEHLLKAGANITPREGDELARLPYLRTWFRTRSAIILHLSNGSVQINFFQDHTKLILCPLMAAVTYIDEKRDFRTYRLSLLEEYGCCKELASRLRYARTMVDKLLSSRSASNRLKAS
panel of 468 diverse kinases (Homo sapiens, UniProt P48729), sequence (P48729 2-337 limits assumed): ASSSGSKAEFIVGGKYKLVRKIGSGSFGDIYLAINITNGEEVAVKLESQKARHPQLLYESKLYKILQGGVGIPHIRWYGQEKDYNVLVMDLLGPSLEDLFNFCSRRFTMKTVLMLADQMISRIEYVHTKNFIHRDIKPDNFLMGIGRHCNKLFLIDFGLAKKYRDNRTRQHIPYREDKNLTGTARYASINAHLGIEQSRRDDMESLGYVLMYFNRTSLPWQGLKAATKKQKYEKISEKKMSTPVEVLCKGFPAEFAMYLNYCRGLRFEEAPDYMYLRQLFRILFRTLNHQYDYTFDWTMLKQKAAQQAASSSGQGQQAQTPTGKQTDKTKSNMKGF
panel of 468 diverse kinases (Homo sapiens, UniProt P21802), sequence (P21802 22-821 limits assumed): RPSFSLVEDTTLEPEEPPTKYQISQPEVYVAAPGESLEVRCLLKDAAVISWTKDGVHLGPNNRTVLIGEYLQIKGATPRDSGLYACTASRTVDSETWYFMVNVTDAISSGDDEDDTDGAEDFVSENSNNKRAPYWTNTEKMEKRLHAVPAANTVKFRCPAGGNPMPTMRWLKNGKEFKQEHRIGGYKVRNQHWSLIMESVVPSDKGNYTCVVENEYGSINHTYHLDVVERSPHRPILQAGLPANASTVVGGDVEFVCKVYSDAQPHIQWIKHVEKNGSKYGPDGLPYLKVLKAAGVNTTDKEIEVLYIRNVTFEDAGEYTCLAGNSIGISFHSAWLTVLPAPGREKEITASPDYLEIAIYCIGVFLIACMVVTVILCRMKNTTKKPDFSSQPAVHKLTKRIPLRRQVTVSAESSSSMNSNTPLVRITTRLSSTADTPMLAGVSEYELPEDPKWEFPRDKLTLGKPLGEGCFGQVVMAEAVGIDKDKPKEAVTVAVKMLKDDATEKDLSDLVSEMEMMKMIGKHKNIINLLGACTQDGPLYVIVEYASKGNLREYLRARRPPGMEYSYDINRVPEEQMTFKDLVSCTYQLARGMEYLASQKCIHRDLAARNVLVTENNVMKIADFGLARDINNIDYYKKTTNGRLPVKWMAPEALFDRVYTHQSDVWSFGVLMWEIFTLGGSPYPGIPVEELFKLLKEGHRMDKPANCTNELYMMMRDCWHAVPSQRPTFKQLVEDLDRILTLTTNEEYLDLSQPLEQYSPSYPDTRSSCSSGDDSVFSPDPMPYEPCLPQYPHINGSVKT
panel of 468 diverse kinases (Homo sapiens, UniProt P36897), sequence (P36897 34-503 limits assumed): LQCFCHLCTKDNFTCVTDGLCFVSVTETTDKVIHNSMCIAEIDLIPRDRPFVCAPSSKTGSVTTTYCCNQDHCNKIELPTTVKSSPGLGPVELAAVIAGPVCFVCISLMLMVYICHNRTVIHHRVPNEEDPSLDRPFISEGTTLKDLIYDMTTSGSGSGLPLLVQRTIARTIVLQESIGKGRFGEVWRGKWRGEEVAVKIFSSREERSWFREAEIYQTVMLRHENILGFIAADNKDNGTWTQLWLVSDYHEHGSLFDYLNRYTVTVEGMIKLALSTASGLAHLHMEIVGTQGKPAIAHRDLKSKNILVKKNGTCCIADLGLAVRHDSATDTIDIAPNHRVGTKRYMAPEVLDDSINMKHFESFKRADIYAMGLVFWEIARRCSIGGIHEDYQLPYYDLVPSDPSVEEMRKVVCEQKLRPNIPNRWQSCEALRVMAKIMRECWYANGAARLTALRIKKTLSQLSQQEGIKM
panel of 468 diverse kinases (Homo sapiens, UniProt P36896), sequence (P36896 24-505 limits assumed): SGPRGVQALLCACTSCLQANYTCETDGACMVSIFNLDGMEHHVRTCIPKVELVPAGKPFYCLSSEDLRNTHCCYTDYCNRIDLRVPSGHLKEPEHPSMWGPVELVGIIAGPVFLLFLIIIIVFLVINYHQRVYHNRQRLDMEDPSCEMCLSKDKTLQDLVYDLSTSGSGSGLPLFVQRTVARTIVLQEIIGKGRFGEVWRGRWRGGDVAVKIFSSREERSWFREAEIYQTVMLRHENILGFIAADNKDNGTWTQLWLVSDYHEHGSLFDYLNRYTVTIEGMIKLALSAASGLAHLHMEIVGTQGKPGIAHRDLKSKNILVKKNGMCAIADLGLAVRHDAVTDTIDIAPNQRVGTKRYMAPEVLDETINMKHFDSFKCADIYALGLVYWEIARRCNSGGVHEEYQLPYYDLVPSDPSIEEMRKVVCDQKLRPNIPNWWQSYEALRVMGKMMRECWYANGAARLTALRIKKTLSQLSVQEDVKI
panel of 468 diverse kinases (Homo sapiens, UniProt Q15208), sequence (Q15208 2-465 limits assumed): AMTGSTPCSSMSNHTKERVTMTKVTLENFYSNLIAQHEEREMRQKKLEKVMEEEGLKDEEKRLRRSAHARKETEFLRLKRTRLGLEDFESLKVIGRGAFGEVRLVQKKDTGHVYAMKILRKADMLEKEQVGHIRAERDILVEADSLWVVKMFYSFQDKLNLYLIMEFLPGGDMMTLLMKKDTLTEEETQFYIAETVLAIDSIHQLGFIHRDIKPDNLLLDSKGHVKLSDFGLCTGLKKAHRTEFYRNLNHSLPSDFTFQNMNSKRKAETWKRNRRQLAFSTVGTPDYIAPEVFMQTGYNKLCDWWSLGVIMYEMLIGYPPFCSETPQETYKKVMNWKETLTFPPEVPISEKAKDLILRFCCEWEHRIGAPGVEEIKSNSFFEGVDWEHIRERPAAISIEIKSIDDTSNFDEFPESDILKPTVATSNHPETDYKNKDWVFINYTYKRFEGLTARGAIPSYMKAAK

**Q.** How did the remaining activity at 1 µM [1] turn out when `COc1cc2nc(NC3CC3)nc(NC3CCN(C(C)C)CC3)c2cc1OC` [Formula IV] was run?
**A.** 82%

**Q.** What about the remaining activity at 1 µM [2] of the same compound?
**A.** 98%

**Q.** And the remaining activity at 1 µM [3]?
**A.** 100%

**Q.** And the remaining activity at 1 µM [4]?
**A.** 100%

**Q.** And the remaining activity at 1 µM [5]?
**A.** 100%

**Q.** What about the remaining activity at 1 µM [6] of the same compound?
**A.** 99%

**Q.** And the remaining activity at 1 µM [7]?
**A.** 85%

**Q.** What about the remaining activity at 1 µM [8] of the same compound?
**A.** 90%

**Q.** What about the remaining activity at 1 µM [9] of the same compound?
**A.** 84%

**Q.** And the remaining activity at 1 µM [10]?
**A.** 100%

**Q.** What about the remaining activity at 1 µM [11] of the same compound?
**A.** 81%

**Q.** And the remaining activity at 1 µM [12]?
**A.** 49%

**Q.** And the remaining activity at 1 µM [13]?
**A.** 96%

**Q.** What about the remaining activity at 1 µM [14] of the same compound?
**A.** 89%

**Q.** What about the remaining activity at 1 µM [15] of the same compound?
**A.** 87%

**Q.** And the remaining activity at 1 µM [16]?
**A.** 90%

**Q.** And the remaining activity at 1 µM [17]?
**A.** 100%

**Q.** And the remaining activity at 1 µM [18]?
**A.** 70%

**Q.** And the remaining activity at 1 µM [19]?
**A.** 91%

**Q.** What about the remaining activity at 1 µM [20] of the same compound?
**A.** 66%

**Q.** And the remaining activity at 1 µM [21]?
**A.** 55%

**Q.** What about the “Percent Control” value [22] of the same compound?
**A.** 98% and 49% and 80% and 92% and 56% and 57%

**Q.** And the “kinase selectivity using KINOMEscan” value [22]?
**A.** extremely high kinase selectivity

**Q.** And the remaining activity at 1 µM [23]?
**A.** 53%

**Q.** And the remaining activity at 1 µM [24]?
**A.** 98%

**Q.** And the remaining activity at 1 µM [25]?
**A.** 94%

**Q.** And the remaining activity at 1 µM [26]?
**A.** 67%

**Q.** What about the remaining activity at 1 µM [27] of the same compound?
**A.** 74%

**Q.** What about the remaining activity at 1 µM [28] of the same compound?
**A.** 100%

**Q.** And the remaining activity at 1 µM [29]?
**A.** 48%

**Q.** And the remaining activity at 1 µM [30]?
**A.** 78%

**Q.** And the remaining activity at 1 µM [31]?
**A.** 91%
